Source: patent US20230047393A1 (EWHA DrugDesignHouse Co.,Ltd., priority 2021, published 2023)
Converted amounts (≈) assume the structure as drawn. Where two headings read alike, the source gives them in different places.

Experiments:
[1] = test system: 4T1 orthotopic-grafted mice; conditions: cited from earlier work
[2] = Effect of metal ion on thermal stability of EW-7197 (40° C.); type: physicochemical; conditions: 100 ppm aluminum ions or iron ions, with or without EDTA, PE bottles
Protocol: After the preparation of each formulation, the formulation was filtered. The filtrate was filled into a PE bottle, and stored in a thermostatic chamber (40° C.).
In this study, the final concentration of aluminum ions or iron ions was 100 ppm, and the PE ophthalmic bottles were used as containers.

[3] = test system: liver of bile duct ligated rats; conditions: cited from earlier work
[4] = test system: mouse B16 melanoma model; conditions: cited from earlier work
[5] = Solubility of EW-7197 at various pH values; type: physicochemical; conditions: thermodynamic from solid
Source text: In order to use EW-7197 for treating or preventing TFG-β signaling related ocular diseases, postsurgical peritoneal adhesions, postsurgical anastomotic strictures, hypertrophic scar, or keloid in human, formulation development of an aqueous solution containing appropriate amounts of EW-7197 is needed.

[6] = test system: kidney of mice with unilateral ureteral obstruction; conditions: cited from earlier work
[7] = test system: liver of CCl4-treated mice; conditions: cited from earlier work
[8] = test system: Col8a2 knock-in mice; conditions: cited from earlier work
[9] = test system: MDA-MB-231-xenografted mouse model; conditions: cited from earlier work
[10] = test system: lung of bleomycin-treated mice; conditions: cited from earlier work
[11] = test system: rat esophagus; conditions: after SEMS placement in the rat esophagus; cited from earlier work
[12] = test system: peritoneal adhesions rat model; conditions: dose-dependent; cited from earlier work
[13] = test system: mouse model of ulcerative colitis; conditions: cited from earlier work
[14] = Photostability of EW-7197 in buffer solutions (ultraviolet and visible light); type: physicochemical; conditions: solution left in a room for a whole day under fluorescent lighting (about 1000 lx per hour)
Protocol: The formulations used in the photostability test are the same formulations (excluding A13, A16, A19, and A22) used for evaluation of thermal stability shown in Table 4. After preparation, each formulation was filtered. About 3 mL of the filtrate was filled in a glass ampule, and illuminated with ultraviolet light of 50 W·h/m^2 and visible light of 300,000 lx·hr by a photostability test chamber. […] Generally, illumination under white fluorescent lighting is about 1000 lx per hour. […] Therefore, EW-7197 needs to be stored in light shielded conditions.

[15] = test system: MMTV/c-Neu mice; conditions: cited from earlier work
[16] = Solubility of EW-7197 in PEG/poloxamer formulations (5° C. and 25° C.); type: physicochemical; conditions: formulations containing 25% PEG4000 and 10% poloxamer 407
Protocol: After confirming that the formulation was suspended at each temperature, the suspension was filtered. The EW-7197 content of the filtrate was measured by HPLC.

[17] = Solubility of EW-7197 with various solubilizing agents (4° C. and 25° C.); type: physicochemical; conditions: for EW-7197 dissolved: 1% of each surfactant, boric acid/sodium borate pH7.5
Source text: The buffer solution used in this study was 0.9% boric acid/0.1% sodium borate (pH7.5). […] After confirming that the formulations were suspended at each temperature, each formulation was filtered.

[18] = test system: CML-affected mice; conditions: combined with ponatinib, compared to ponatinib alone; cited from earlier work
[19] = test system: adhesion bands mouse model; conditions: cited from earlier work

Cc1cccc(-c2[nH]c(CNc3ccccc3F)nc2-c2ccc3ncnn3c2)n1 [EW-7197, 2-fluoro-N-((5-(6-methylpyridin-2-yl)-4-([1,2,4]triazolo[1,5-a]pyridin-6-yl)-1H-imidazol-2-yl)methyl)aniline]
CTL activity [1]: enhanced
Smad/TGF-β signaling, cell migration, invasion, and lung metastasis [1]: inhibits
effect of metal ions on thermal stability of EW-7197 [2]: neither aluminum ions nor iron ions affected the thermal stability
expression of collagen, aSMA, fibronectin, 4-hydroxy-2,3-nonenal, and integrins [3]: decreases
progression of melanoma ([4]; mouse B16 melanoma model, with enhanced CTL responses): suppress
efficacy compared with LY-2157299 ([4]; oral EW-7197 2.5 mg/kg once daily vs LY-2157299 75 mg/kg bid): more effective
solubility ([5]; 0.1N NaOH, pH 12.86, aqueous buffer, pH 12.86, 0.1N NaOH, pH after equilibration 12.53, read-out: Solubility Average (n = 2)): 437 µg/mL (≈ 1090 µM)
solubility ([5]; 0.1N NaOH, pH 12.86, aqueous buffer, pH 12.86, 0.1N NaOH, pH after equilibration 12.53, read-out: Solubility Trial 1): 396 µg/mL (≈ 991 µM)
solubility ([5]; 0.1N NaOH, pH 12.86, aqueous buffer, pH 12.86, 0.1N NaOH, pH after equilibration 12.53, read-out: Solubility Trial 2): 478 µg/mL (≈ 1200 µM)
solubility ([5]; citrate buffer, pH 3, aqueous buffer, pH 3.0, Citrate buffer, pH after equilibration 3.30, read-out: Solubility Average (n = 2)): 1010 µg/mL (≈ 2540 µM)
solubility ([5]; citrate buffer, pH 3, aqueous buffer, pH 3.0, Citrate buffer, pH after equilibration 3.30, read-out: Solubility Trial 1): 1000 µg/mL (≈ 2500 µM)
solubility ([5]; citrate buffer, pH 3, aqueous buffer, pH 3.0, Citrate buffer, pH after equilibration 3.30, read-out: Solubility Trial 2): 1030 µg/mL (≈ 2580 µM)
solubility ([5]; citrate buffer, pH 4, aqueous buffer, pH 4.0, Citrate buffer, pH after equilibration 4.16, read-out: Solubility Average (n = 2)): 105 µg/mL (≈ 263 µM)
solubility ([5]; citrate buffer, pH 4, aqueous buffer, pH 4.0, Citrate buffer, pH after equilibration 4.16, read-out: Solubility Trial 1): 110 µg/mL (≈ 275 µM)
solubility ([5]; citrate buffer, pH 4, aqueous buffer, pH 4.0, Citrate buffer, pH after equilibration 4.16, read-out: Solubility Trial 2): 100 µg/mL (≈ 250 µM)
solubility ([5]; citrate buffer, pH 5, aqueous buffer, pH 5.0, Citrate buffer, pH after equilibration 4.90, read-out: Solubility Average (n = 2)): 20 µg/mL (≈ 50.1 µM)
solubility ([5]; citrate buffer, pH 5, aqueous buffer, pH 5.0, Citrate buffer, pH after equilibration 4.90, read-out: Solubility Trial 1): 19 µg/mL (≈ 47.6 µM)
solubility ([5]; citrate buffer, pH 5, aqueous buffer, pH 5.0, Citrate buffer, pH after equilibration 4.90, read-out: Solubility Trial 2): 21 µg/mL (≈ 52.6 µM)
solubility ([5]; hydrochloric acid buffer, pH 1.2, simulated gastric fluid, pH 1.2, Hydrochloric acid buffer, pH after equilibration 2.81, read-out: Solubility Average (n = 2)): 25000 µg/mL (≈ 62700 µM)
solubility ([5]; hydrochloric acid buffer, pH 1.2, simulated gastric fluid, pH 1.2, Hydrochloric acid buffer, pH after equilibration 2.81, read-out: Solubility Trial 1): 25100 µg/mL (≈ 62700 µM)
solubility ([5]; hydrochloric acid buffer, pH 1.2, simulated gastric fluid, pH 1.2, Hydrochloric acid buffer, pH after equilibration 2.81, read-out: Solubility Trial 2): 25000 µg/mL (≈ 62700 µM)
solubility ([5]; hydrochloric acid buffer, pH 2, simulated gastric fluid, pH 2.0, Hydrochloric acid buffer, pH after equilibration 2.97, read-out: Solubility Average (n = 2)): 2900 µg/mL (≈ 7270 µM)
solubility ([5]; hydrochloric acid buffer, pH 2, simulated gastric fluid, pH 2.0, Hydrochloric acid buffer, pH after equilibration 2.97, read-out: Solubility Trial 1): 2930 µg/mL (≈ 7340 µM)
solubility ([5]; hydrochloric acid buffer, pH 2, simulated gastric fluid, pH 2.0, Hydrochloric acid buffer, pH after equilibration 2.97, read-out: Solubility Trial 2): 2880 µg/mL (≈ 7210 µM)
solubility ([5]; phosphate buffer, pH 6, aqueous buffer, pH 6.0, Phosphate buffer, pH after equilibration 5.96, read-out: Solubility Average (n = 2)): 12 µg/mL (≈ 30 µM)
solubility ([5]; phosphate buffer, pH 6, aqueous buffer, pH 6.0, Phosphate buffer, pH after equilibration 5.96, read-out: Solubility Trial 1): 12 µg/mL (≈ 30 µM)
solubility ([5]; phosphate buffer, pH 6, aqueous buffer, pH 6.0, Phosphate buffer, pH after equilibration 5.96, read-out: Solubility Trial 2): 12 µg/mL (≈ 30 µM)
solubility ([5]; phosphate buffer, pH 6.8, aqueous buffer, pH 6.8, Phosphate buffer, pH after equilibration 6.79, read-out: Solubility Average (n = 2)): 12 µg/mL (≈ 30 µM)
solubility ([5]; phosphate buffer, pH 6.8, aqueous buffer, pH 6.8, Phosphate buffer, pH after equilibration 6.79, read-out: Solubility Trial 1): 11 µg/mL (≈ 27.5 µM)
solubility ([5]; phosphate buffer, pH 6.8, aqueous buffer, pH 6.8, Phosphate buffer, pH after equilibration 6.79, read-out: Solubility Trial 2): 13 µg/mL (≈ 32.5 µM)
solubility ([5]; phosphate buffer, pH 7.4, aqueous buffer, pH 7.4, Phosphate buffer, pH after equilibration 7.32, read-out: Solubility Average (n = 2)): 13 µg/mL (≈ 32.5 µM)
solubility ([5]; phosphate buffer, pH 7.4, aqueous buffer, pH 7.4, Phosphate buffer, pH after equilibration 7.32, read-out: Solubility Trial 1): 13 µg/mL (≈ 32.5 µM)
solubility ([5]; phosphate buffer, pH 7.4, aqueous buffer, pH 7.4, Phosphate buffer, pH after equilibration 7.32, read-out: Solubility Trial 2): 13 µg/mL (≈ 32.5 µM)
solubility ([5]; water / aqueous solution, aqueous buffer, in an acceptable pH range for ophthalmic solution, read-out: water solubility): 10 to 20 µg/mL (≈ 25 to 50.1 µM)
solubility ([5]; water, pH 7.17, water, Water, pH after equilibration 7.17, read-out: Solubility Average (n = 2)): 9 µg/mL (≈ 22.5 µM)
solubility ([5]; water, pH 7.17, water, Water, pH after equilibration 7.17, read-out: Solubility Trial 1): 9 µg/mL (≈ 22.5 µM)
solubility ([5]; water, pH 7.17, water, Water, pH after equilibration 7.17, read-out: Solubility Trial 2): 9 µg/mL (≈ 22.5 µM)
expression of collagen, aSMA, fibronectin, 4-hydroxy-2,3-nonenal, and integrins [6]: decreases
expression of collagen, aSMA, fibronectin, 4-hydroxy-2,3-nonenal, and integrins [7]: decreases
fibronectin expression ([8]; 0.004%, 0.02%, and 0.1%, dose-dependent): suppresses
decrease in corneal endothelial cells and/or corneal endothelial disorders represented by overexpression of ECM ([8]; 0.02% eye drop administration): effectively suppresses
paclitaxel-induced epithelial-mesenchymal transition (EMT) and cancer stem-like cells properties [9]: suppresses
expression of collagen, aSMA, fibronectin, 4-hydroxy-2,3-nonenal, and integrins [10]: decreases
granulation tissue formation [11]: suppresses
incidence, quality, and tenacity of peritoneal adhesions [12]: reduces
clinical symptoms of colitis [13]: ameliorates
excessive collagen deposition and fibrosis in colitis tissues [13]: inhibits
overexpression of proinflammatory and profibrotic genes [13]: suppresses
EW-7197 decomposed by light [14]: 1-5%
Smad/TGF-β signaling, cell migration, invasion, and lung metastasis [15]: inhibits
solubility of EW-7197 [16]: about 0.125%
EW-7197 dissolved ([17]; 4° C.): about 0.01%
EW-7197 dissolved ([17]; 25° C.): about 0.02%
upper limit of concentration of EW-7197 ([17]; formulation with 1% tyloxapol, 4% PEG4000, and 2% niacinamide): about 0.015%
disease relapse and survival [18]: significantly delays disease relapse and prolongs survival
frequency and stability of adhesion bands [19]: prevents
